From paper PMC8373216, “Development and Preclinical Evaluation of New Inhaled Lipoglycopeptides for the Treatment of Persistent Pulmonary Methicillin-Resistant Staphylococcus aureus Infections” (Antimicrobial Agents and Chemotherapy, 2021)
Read-outs that look alike come from different tables or passages of the source.

Legend:
[1] = Single-dose nebulized nose-only inhalation PK in healthy rats; format: in vivo, rat; details: rat, in vivo
Description: Rats were acclimated in the study facility for approximately 1 week prior to study start. Ten or eleven rats per cohort were loaded into the chamber at the time of dosing. […] An additional airflow set to 6 liters/min was admixed with the nebulizer output to further direct the test articles to the animals. […] The remaining port on the chamber was fit with an aerosol sampling filter for dose determination over a 5 min sampling period. The average dose delivered to the nose of each animal was calculated using an algorithm that was previously described ([49]). […] Animals were euthanized for collection of whole lungs and plasma at time points ranging from immediate postdose (IPD; approximately 30 min after dosing for nebulization) to 168 h postdose (7 days). Drugs were extracted from tissues using customized protein precipitation methods with an appropriate internal standard for each compound and transferred for analysis by LC-MS/MS (Sciex API4500 or API6500+ mass spectrometer [Sciex, Framingham, MA]). GraphPad Prism (La Jolla, CA) was used for statistical analyses and data plotting. […] The data were applied to a noncompartmental analysis after extravascular dosing input and fit to a linear up/log down model. Statistical analysis of in vitro intracellular and biofilm activity was based on a two-way ANOVA with a Bonferroni post test. In vivo statistical analysis was based on the Kolmogorov-Smirnov test.

[2] = system: Streptococcus oralis; assay: Expanded panel broth microdilution MIC; format: cell-based
[3] = system: Streptococcus mitis; assay: Expanded panel broth microdilution MIC/MBC; format: cell-based; details: for MIC: Streptococcus mitis
[4] = system: Staphylococcus hominis; assay: Expanded panel broth microdilution MIC; format: cell-based
[5] = system: MSSA ATCC 29213; assay: In-house broth microdilution MIC screening; format: cell-based; details: Staphylococcus aureus; broth microdilution; read-out: MIC Value, MSSA ATCC 29213
[6] = system: Enterococcus faecalis; assay: Expanded panel broth microdilution MIC/MBC; format: cell-based
[7] = system: S. aureus; assay: Expanded panel broth microdilution MIC/MBC; details: for MIC: Staphylococcus aureus
[8] = system: Cutibacterium acnes; assay: Expanded panel broth microdilution MIC; format: cell-based
[9] = system: Streptococcus anginosus; assay: Expanded panel broth microdilution MIC/MBC; format: cell-based; details: for MIC: Streptococcus anginosus, read-out: MIC
[10] = system: Clostridium. perfringens; assay: microbe, parasite or virus in culture; format: cell-based
[11] = system: Streptococcus pneumoniae; assay: Expanded panel broth microdilution MIC/MBC; format: cell-based
[12] = system: MRSA ATCC BAA 1556 (USA300); assay: In-house broth microdilution MIC screening; format: cell-based, Staphylococcus aureus; details: Staphylococcus aureus; broth microdilution; read-out: MIC Value, MRSA ATCC BAA 1556
[13] = system: Streptococcus dysgalactiae; assay: Expanded panel broth microdilution MIC/MBC; format: cell-based; details: for MIC: Streptococcus dysgalactiae
[14] = system: Streptococcus constellatus; assay: Expanded panel broth microdilution MIC; format: cell-based
[15] = system: MRSA ATCC BAA 1556 (USA300) biofilm; assay: Static MRSA biofilm killing, plastic microtiter plate, MEM
[16] = system: Streptococcus pyogenes; assay: Expanded panel broth microdilution MIC/MBC; format: cell-based; details: for MIC: Streptococcus pyogenes
[17] = system: Streptococcus agalactiae; assay: Expanded panel broth microdilution MIC/MBC; format: cell-based; details: for MIC: Streptococcus agalactiae
[18] = system: MRSA ATCC BAA 1556 (USA300) biofilm; assay: MRSA biofilm killing, MBEC assay system, TSB with 1% human plasma; details: MBEC
[19] = male, Sprague Dawley, inhaled or intranasal

CCCCCCCCCCNCCN[C@@]1(C)C[C@H](O[C@H]2[C@H](Oc3c4cc5cc3Oc3ccc(cc3Cl)[C@@H](O)[C@@H](NC(=O)[C@@H](CC(C)C)NC)C(=O)N[C@@H](CC(N)=O)C(=O)N[C@H]5C(=O)N[C@H]3C(=O)N[C@H](C(=O)N[C@H](C(=O)O)c5cc(O)cc(O)c5-c5cc3ccc5O)[C@H](O)c3ccc(c(Cl)c3)O4)O[C@H](CO)[C@@H](O)[C@@H]2O)O[C@@H](C)[C@H]1O [RV40, N-decylaminoethylvancomycin]
0.016 µg/mL: MIC [5] | MIC [12]
0.04 µg/mL: MIC ([16]; S. pyogenes, 2 isolates, read-out: MIC (median))
0.03 µg/mL: MIC ([3]; S. mitis (MGS) MMX 5798, read-out: MIC) | MIC ([6]; Enterococcus faecalis, E. faecalis MMX 4176, VSE, read-out: MIC) | MIC ([7]; NRS13 / VISA, S. aureus NRS13, VISA) | MIC ([7]; NRS23, S. aureus NRS23, hVISA) | MIC ([7]; NRS52 / VISA, S. aureus NRS52, VISA)
~3 log10 CFU/ml: Reduction in MRSA biofilm titer versus control ([15]; doses 1 to 10 μg/ml)
0.5 µg/mL: MIC ([6]; E. faecalis VanA VRE, 1 isolate) | MIC ([6]; Enterococcus faecalis, E. faecalis MMX 1086, VanA VRE, read-out: MIC)
1: MIC:MBC ([3]; S. mitis MGS, MBC on one organism) | MIC:MBC ([7]; S. aureus MRSA, MBC median of n = 5) | MIC:MBC ([7]; S. aureus MSSA, MBC on one organism) | MIC:MBC ([7]; S. aureus VISA, MBC median of n = 2) | MIC:MBC ([7]; S. aureus hVISA, MBC on one organism) | MIC:MBC ([11]; S. pneumoniae PISP, MBC on one organism) | MIC:MBC ([13]; S. dysgalactiae, MBC on one organism) | MIC:MBC ([16]; S. pyogenes ermR) | MIC:MBC ([17]; S. agalactiae, MBC on one organism)
>8: MIC:MBC ([6]; E. faecalis VSE, MBC on one organism) | MIC:MBC ([9]; S. anginosus AGS)
0.012 µg/mL: MIC ([7]; MSSA, read-out: MIC (median), S. aureus MSSA, 4 isolates)
0.06 µg/mL: MIC ([7]; NRS1 / VISA, S. aureus NRS1, VISA, Mu50) | MIC ([7]; NRS4 / VISA, S. aureus NRS4, VISA) | MIC ([7]; NRS22 / VISA, S. aureus NRS22, VISA) | MIC ([7]; VISA, read-out: MIC (median), S. aureus VISA, 5 isolates) | MIC ([16]; ATCC19615, S. pyogenes ATCC 19615, read-out: MIC)
not measurably eliminated from the lung: Elimination from the lung [1]
690: Kp [1, 19]
9800 µg·h/g: Lung AUC0-∞ [1, 19]
0.12 µg/mL: MIC ([13]; S. dysgalactiae MMX 5123, read-out: MIC)
≥ 1.25 µg/mL: Concentrations with statistically significant reduction versus control biofilm ([15]; two-way ANOVA, Bonferroni)
0.008 µg/mL: MIC ([3]; ATCC49456, S. mitis (MGS) ATCC 49456, read-out: MIC) | MIC ([7]; ATCC29213 / MSSA, S. aureus ATCC 29213, MSSA) | MIC ([7]; ATCC43300 / MRSA, S. aureus ATCC 43300, MRSA) | MIC ([7]; ATCCBAA1556|MRSA|USA300, S. aureus ATCC BAA-1556, MRSA, USA300 (expanded panel)) | MIC ([7]; ATCCBAA1756|MRSA|NRS384|USA300, S. aureus NRS 384, ATCC BAA-1756, MRSA, USA300) | MIC ([7]; MRSA / NRS123 / USA400, S. aureus NRS123, MRSA, USA400) | MIC ([7]; MRSA / NRS725 / USA300, S. aureus NRS725, MRSA, USA300) | MIC ([7]; MRSA / USA300, S. aureus MMX 3982, MRSA, USA300) | MIC ([7]; MRSA, S. aureus MMX 7899, MRSA) | MIC ([7]; MRSA, S. aureus MMX 7900, MRSA) | MIC ([7]; MRSA, S. aureus MMX 7901, MRSA) | MIC ([7]; MRSA, S. aureus MMX 7903, MRSA) | MIC ([7]; MRSA, read-out: MIC (median), S. aureus MRSA, 12 isolates) | MIC ([7]; MSSA, S. aureus MMX 7907, MSSA) | MIC ([8]; ATCC6919, P. acnes ATCC 6919, read-out: MIC) | MIC ([8]; ATCC11827, P. acnes ATCC 11827, read-out: MIC) | MIC ([8]; C. acnes, 2 isolates, read-out: MIC (median)) | MIC ([13]; S. dysgalactiae MMX 5121, read-out: MIC) | MIC ([14]; S. constellatus AGS, 1 isolate) | MIC ([14]; Streptococcus constellatus, S. constellatus (AGS) MMX 5677, read-out: MIC) | MIC ([16]; S. pyogenes MMX 946, ermR, read-out: MIC) | MIC ([16]; S. pyogenes ermR, 1 isolate, read-out: MIC) | MIC ([17]; ATCC13813, S. agalactiae ATCC 13813, read-out: MIC) | MIC ([17]; S. agalactiae MMX 4088, read-out: MIC) | MIC ([17]; S. agalactiae MMX 4115, ermR, read-out: MIC) | MIC ([17]; S. agalactiae ermR, 1 isolate, read-out: MIC) | MIC ([17]; S. agalactiae, 2 isolates, read-out: MIC (median))
4 log10 CFU/peg: Reduction in MRSA biofilm titer compared to untreated biofilm ([18]; 128 μg/ml)
0.30 mg/kg: Pulmonary dose ([1]; male, Sprague Dawley)
105%: Drug lung level at 120 h ([1]; male, Sprague Dawley, 120 h)
100 ng/mL: Plasma Cmax [1, 19]
8: MIC:MBC ([6]; E. faecalis VanA VRE)
0.004 µg/mL: MIC ([11]; Streptococcus pneumoniae, ATCC49619, S. pneumoniae ATCC 49619, PISP, read-out: MIC) | MIC ([11]; Streptococcus pneumoniae, S. pneumoniae MMX 747, PISP, read-out: MIC) | MIC ([11]; Streptococcus pneumoniae, S. pneumoniae PISP, 2 isolates, read-out: MIC (median))
≥ 4 µg/mL: Concentrations with statistically significant reduction versus control biofilm ([18]; two-way ANOVA, Bonferroni)
0.02 µg/mL: MIC ([3]; S. mitis MGS, 2 isolates, read-out: MIC (median))
0.015 µg/mL: MIC ([2]; S. oralis MGS, 1 isolate) | MIC ([2]; Streptococcus oralis, S. oralis (MGS) MMX 5821, read-out: MIC) | MIC ([4]; ATCC27844, S. hominis ATCC 27844, read-out: MIC) | MIC ([4]; S. hominis, 1 isolate, read-out: MIC) | MIC ([6]; Enterococcus faecalis, ATCC29212, E. faecalis ATCC 29212, VSE, read-out: MIC) | MIC ([7]; ATCC13709 / MSSA, S. aureus ATCC 13709, MSSA) | MIC ([7]; MRSA, S. aureus MMX 5715, MRSA) | MIC ([7]; MRSA, S. aureus MMX 7902, MRSA) | MIC ([7]; MSSA, S. aureus MMX 7908, MSSA) | MIC ([7]; NRS2, S. aureus NRS2, hVISA;Mu3) | MIC ([9]; ATCC33397, S. anginosus (AGS) ATCC 33397) | MIC ([9]; S. anginosus AGS, 1 isolate) | MIC [10] | MIC ([10]; ATCC13124) | MIC ([13]; S. dysgalactiae MMX 5124, read-out: MIC) | MIC ([13]; S. dysgalactiae, 3 isolates, read-out: MIC (median)) | MIC ([16]; S. pyogenes MMX 8778, read-out: MIC)
48 µg/g: Lung Cmax [1, 19]
0.023 µg/mL: MIC ([6]; Enterococcus faecalis, E. faecalis VSE, 2 isolates, read-out: MIC (median)) | MIC ([7]; read-out: MIC (median), S. aureus hVISA, 2 isolates)
≤ 0.008 µg/mL: MIC ([11]; Streptococcus pneumoniae, S. pneumoniae MMX 432, PRSP, read-out: MIC)
≤0.008 µg/mL: MIC ([11]; S. pneumoniae PRSP, 1 isolate)
